Data taken from US20030199699A1, “3-(4,5-Dihydroisoxaxol-5-yl)benzoylcyclohexenones and the use thereof as herbicides” (priority 2000, published 2003).

Tests used:
redroot pigweed = assay: greenhouse herbicidal test, pre-emergence; type: in vivo, Amaranthus retroflexus; details: 125 or 62.5 g/ha
From the text: (§1) The culture containers used were plastic flower pots containing loamy sand with approximately 3.0% of humus as substrate. The seeds of the test plant were sown separately for each species.
(§2) For the pre-emergence treatment, the active ingredients, which were suspended or emulsified in water, were applied directly after sowing by means of finely distributing nozzles. The containers were irrigated gently to promote germination and growth and subsequently covered with transparent plastic hoods until the plants had rooted. This cover caused uniform germination of the test plants unless this was adversely affected by the active ingredients.
(§3) Depending on the species, the plants were kept at temperatures of from 10 to 25° C. or from 20 to 35° C. The test period extended over 2 to 4 weeks. During this time, the plants were tended, and their response to the individual treatments was evaluated.
(§4) Evaluation was carried out using a scale of from 0 to 100. 100 means no emergence of the plants, or complete destruction of at least the aerial parts, and 0 means no damage or normal course of growth.
(§5) The plants used in the greenhouse experiments belonged to the following species: […]

hairy fingergrass = assay: greenhouse herbicidal test, pre-emergence; type: in vivo, Digitaria sanguinalis; details: 125 or 62.5 g/ha
From the text: as §1, §2, §3, §4, §5

lambsquarters = assay: greenhouse herbicidal test, pre-emergence; type: in vivo, Chenopodium album; details: 125 or 62.5 g/ha
From the text: as §1, §2, §3, §4, §5

black nightshade = assay: greenhouse herbicidal test, pre-emergence; type: in vivo, Solanum nigrum; details: 125 or 62.5 g/ha
From the text: as §1, §2, §3, §4, §5

- melting point: 135 to 140 °C
SMILES: CC1=NOC(c2c(S(C)(=O)=O)ccc(C(=O)C3=C(O)CCCC3=O)c2C)C1 (centres unmarked) [Compound 2.5, 2-[2-Methyl-3-(3-methyl-4,5-dihydroisoxazol-5-yl)-4-methylsulfonylbenzoyl]-1-hydroxycyclohex-1-en-3-one]
- herbicidal action against redroot pigweed (redroot pigweed): highly efficiently
- herbicidal action against hairy fingergrass (hairy fingergrass): highly efficiently
- herbicidal action against lambsquarters (lambsquarters): highly efficiently
- herbicidal action against black nightshade (black nightshade): highly efficiently
